Results reported in US9839642B2, “Beta-tetrazolyl-propionic acids as metallo-beta-lactamase inhibitors” (priority 2014, dated 2017).
Read-outs that look alike come from different tables or passages of the source.

What was measured:
IMP-1 = IMP-1 (Serratia marcescens, UniProt P52699); assay: Enzyme activity: determination of IC50, fluorescence assay with CCF2-FA substrate; format: biochemical; details: CCF2-FA 1.25 μM, 2 hours at 25° C., read-out: IMP1 IC50
How it was run: (§1)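 Enzyme at 1 pM (NDM-1), 2 pM (IMP-1) or 30 pM (VIM-1) was incubated with inhibitor (20 μM to 0.00063 μM) and 1.25 μM CCF2-FA in 100 mM KH2PO4 pH 7, 0.005% Tween-20, 10 μM ZnSO4 for 2 hours at 25° C. Fluorescence was read at ex 405/em 460 nm; IC50 from 4-parameter fit.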

NDM-1 = NDM-1 (Klebsiella pneumoniae, UniProt C7C422); assay: as above; format: biochemical; details: CCF2-FA 1.25 μM, 2 hours at 25° C., read-out: NDM1 IC50
Sequence of NDM-1 (C7C422 29-270, looked up, species assumed): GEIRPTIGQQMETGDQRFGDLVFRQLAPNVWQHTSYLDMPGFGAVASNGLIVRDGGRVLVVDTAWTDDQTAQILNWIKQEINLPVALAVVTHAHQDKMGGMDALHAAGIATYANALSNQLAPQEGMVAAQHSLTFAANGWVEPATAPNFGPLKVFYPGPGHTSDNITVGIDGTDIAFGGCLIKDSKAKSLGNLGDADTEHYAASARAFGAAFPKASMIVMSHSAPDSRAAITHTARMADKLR
How it was run: as §1

VIM-1 = VIM-1 (Pseudomonas aeruginosa, UniProt A0A0F7KYQ8); assay: as above; format: biochemical; details: CCF2-FA 1.25 μM, 2 hours at 25° C., read-out: VIM1 IC50
How it was run: as §1

[1] = tested on: Escherichia coli expressing NDM-1 (CLB30016); assay: Antibiotic potentiation activity: synergistic concentration (MITC95) with imipenem, growth by OD600; format: cell-based
How it was run: (§2)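 Colonies from overnight agar plates (35 °C) were suspended in saline and diluted 1:100 into 1.1× CAMHB. Inhibitor (final 200 μM to 0.195 μM) was combined with imipenem at 1 or 4 μg/ml, incubated 22–24 h at 35 °C, and absorbance read; MITC95 is the lowest inhibitor concentration giving 95% growth inhibition.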

[2] = tested on: Klebsiella pneumoniae expressing VIM-1 (IHMA599644); assay: as above; format: cell-based
How it was run: as §2

[3] = tested on: Serratia marcescens expressing IMP-1 (CL5741); assay: as above; format: cell-based
How it was run: as §2

[4] = 95% inhibition of bacterial growth, strain CLB30016
[5] = 95% inhibition of bacterial growth, strain IHMA599644
[6] = 95% inhibition of bacterial growth, strain CL5741
[7] = E. coli CLB30016 (NDM-1), 95% inhibition of growth
[8] = K. pneumoniae IHMA599644 (VIM-1), 95% inhibition of growth
[9] = S. marcescens CL5741 (IMP-1), 95% inhibition of growth

Sequence of IMP-1 (P52699 19-246, looked up, species assumed): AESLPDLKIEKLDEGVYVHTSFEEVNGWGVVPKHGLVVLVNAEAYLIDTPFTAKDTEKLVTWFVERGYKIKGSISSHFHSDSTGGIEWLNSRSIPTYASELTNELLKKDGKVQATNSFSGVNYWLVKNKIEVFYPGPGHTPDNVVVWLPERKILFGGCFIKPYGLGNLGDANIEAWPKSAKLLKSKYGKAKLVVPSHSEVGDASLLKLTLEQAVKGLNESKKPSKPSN

Structure (SMILES) | IC50 (IMP-1; enzyme 2 pM) | IC50 (NDM-1; enzyme 1 pM) | IC50 (VIM-1; enzyme 30 pM) | NDM1 EC30016 MITC95 [1, 4] | VIM1 KP599644 MITC95 [2, 5] | IMP1 SM5741 MITC95 [3, 6] | IC50 (IMP-1; IMP-1 enzyme 2 pM) | IC50 (NDM-1; NDM-1 enzyme 1 pM) | IC50 (VIM-1; VIM-1 enzyme 30 pM) | NDM1 EC30016 MITC95 [1, 7] | VIM1 KP599644 MITC95 [2, 8] | IMP1 SM5741 MITC95 [3, 9]
CCC[C@H](C(=O)O)[C@H](Cc1ccc(Oc2ccc(CN)cc2)nc1)c1nnn[nH]1 [Example 131, (S)-2-((S)-2-(6-(4-(aminomethyl)phenoxy)pyridin-3-yl)-1-(1H-tetrazol-5-yl)ethyl)pentanoic acid] | 0.2 µM | 0.012 µM | 0.0019 µM | 0.78 µM | 9.4 µM | 6.2 µM | – | – | – | – | – | –
CCC[C@H](C(=O)O)[C@H](Cc1ccc(-c2cnc(NC(C)=O)nc2)nc1)c1nn[nH]n1 [Example 160, (2S)-2-[(1S)-2-{6-[2-(acetylamino)pyrimidin-5-yl]pyridin-3-yl}-1-(1H-tetrazol-5-yl)ethyl]pentanoic acid] | 1.6 µM | 0.05 µM | 0.0057 µM | 38 µM | 75 µM | 50 µM | – | – | – | – | – | –
CCC[C@H](C(=O)O)[C@H](CCc1ccc(N)nc1)c1nnn[nH]1 [Example 405, (2S,3S)-5-(6-aminopyridin-3-yl)-2-propyl-3-(1H-tetrazol-5-yl)pentanoic acid] | – | – | – | – | – | – | 14.8 µM | 2.83 µM | 0.0396 µM | 12.5 µM | 12.5 µM | 200 µM
CC(C)C[C@H](C(=O)O)[C@H](Cc1ccc(N2CCNCC2)c(F)c1)c1nn[nH]n1 [Example 146, (S)-2-((S)-2-(3-fluoro-4-(piperazin-1-yl)phenyl)-1-(2H-tetrazol-5-yl)ethyl)-4-methylpentanoic acid] | 0.1 µM | 0.036 µM | 0.0016 µM | 6.2 µM | 15.6 µM | 5.5 µM | – | – | – | – | – | –
CC(C)C[C@H](C(=O)O)[C@H](Cc1ccc(N2CCC3(CC2)CNC3)nc1)c1nnn[nH]1 [Example 308, (2S)-2-[(1S)-2-[6-(2,7-diazaspiro[3.5]non-7-yl)pyridin-3-yl]-1-(1H-tetrazol-5-yl)ethyl]-4-methylpentanoic acid] | – | – | – | – | – | – | 0.37 µM | 0.12 µM | 0.032 µM | 3.1 µM | 25 µM | 9.4 µM
CCC[C@H](C(=O)O)[C@H](Cc1ccc(C2CCN(C)CC2)cc1)c1nn[nH]n1 [Example 300, (2S)-2-[(1S)-2-[4-(1-methylpiperidin-4-yl)phenyl]-1-(2H-tetrazol-5-yl)ethyl]pentanoic acid] | – | – | – | – | – | – | 2.1 µM | 0.55 µM | 0.14 µM | 50 µM | 100 µM | 25 µM
CC(C)C[C@H](C(=O)O)[C@H](Cc1ccc(-c2ccc(S(N)(=O)=O)cc2)cn1)c1nn[nH]n1 [Example 175, (2S)-4-methyl-2-[(1S)-2-[5-(4-sulfamoylphenyl)pyridin-2-yl]-1-(2H-tetrazol-5-yl)ethyl]pentanoic acid] | 0.84 µM | 0.019 µM | 0.012 µM | 18.8 µM | 50 µM | 75 µM | – | – | – | – | – | –
CCC[C@H](C(=O)O)[C@H](Cc1ccccn1)c1nn[nH]n1 [Example 154, (S)-2-((S)-2-(pyridin-2-yl)-1-(1H-tetrazol-5-yl)ethyl)pentanoic acid] | 13 µM | 0.43 µM | 0.14 µM | 0.78 µM | 25 µM | 100 µM | – | – | – | – | – | –
CCC[C@H](C(=O)O)[C@H](Cc1cccnc1Cl)c1nnn[nH]1 [Example 87, (2S)-2-[(1S)-2-(2-chloropyridin-3-yl)-1-(1H-tetrazol-5-yl)ethyl]pentanoic acid] | 6.6 µM | 0.3 µM | 0.0023 µM | 12.5 µM | 25 µM | >200 µM | – | – | – | – | – | –
CCC[C@H](C(=O)O)[C@H](Cc1ccc(NCCN2CCN(C(C)C)CC2)cc1)c1nn[nH]n1 [Example 219, (2S)-2-[(1S)-2-[4-({2-[4-(1-methylethyl)piperazin-1-yl]ethyl}amino)phenyl]-1-(2H-tetrazol-5-yl)ethyl]pentanoic acid] | 1 µM | 0.21 µM | 0.093 µM | 25 µM | 100 µM | 25 µM | – | – | – | – | – | –
CC(C[C@H](C(=O)O)[C@H](Cc1ccc(N)nc1)c1nnn[nH]1)c1ccccc1 (stereo partly drawn) [Example 404, (2S)-2-((S)-2-(6-aminopyridin-3-yl)-1-(1H-tetrazol-5-yl)ethyl)-4-phenylpentanoic acid] | – | – | – | – | – | – | 0.622 µM | 0.228 µM | 0.0219 µM | 18.75 µM | 75 µM | 75 µM
CC(C)[C@H](C(=O)O)[C@H](Cc1ccc(C2=CCNC2)c(F)c1)c1nnn[nH]1 [Example 69, (2S,3S)-4-(4-(2,5-dihydro-1H-pyrrol-3-yl)-3-fluorophenyl)-2-isopropyl-3-(1H-tetrazol-5-yl)butanoic acid] | 0.77 µM | 0.025 µM | 0.0013 µM | 3.1 µM | 6.2 µM | 6.2 µM | – | – | – | – | – | –
CCC[C@H](C(=O)O)[C@H](Cc1cccc(N2CCCC(O)C2)c1)c1nn[nH]n1 (stereo partly drawn) [Example 360, (2S)-2-[(1S)-2-[3-(3-hydroxypiperidin-1-yl)phenyl]-1-(2H-tetrazol-5-yl)ethyl]pentanoic acid] | – | – | – | – | – | – | 0.51 µM | 0.047 µM | 0.013 µM | 25 µM | 150 µM | 18.8 µM
CC(C)C[C@H](C(=O)O)[C@H](Cc1ccc(N2CCC(CN)CC2)nc1)c1nnn[nH]1 [Example 307, (2S)-2-[(1S)-2-{6-[4-(aminomethyl)piperidin-1-yl]pyridin-3-yl}-1-(1H-tetrazol-5-yl)ethyl]-4-methylpentanoic acid] | – | – | – | – | – | – | 0.39 µM | 0.12 µM | 0.024 µM | 4.7 µM | 25 µM | 6.2 µM
CC[C@H](C)[C@H](C(=O)O)[C@H](Cc1ccc(C2CCNC2)cc1)c1nnn[nH]1 (stereo partly drawn) [Example 81, (2S,3S)-3-methyl-2-((1S)-2-(4-(pyrrolidin-3-yl)phenyl)-1-(1H-tetrazol-5-yl)ethyl)pentanoic acid] | 0.065 µM | 0.046 µM | 0.0044 µM | 2.3 µM | 6.2 µM | 2.3 µM | – | – | – | – | – | –
CCC[C@H](C(=O)O)[C@H](Cc1ccc(Cl)cc1)c1nnn[nH]1 [Example 263, (2S)-2-[(1S)-2-(4-chlorophenyl)-1-(1H-tetrazol-5-yl)ethyl]pentanoic acid] | – | – | – | – | – | – | 0.43 µM | 0.057 µM | 0.0024 µM | 9.4 µM | 9.4 µM | 12.5 µM
CCC[C@H](C(=O)[O-])[C@H](Cc1ccc(C2CCC[N+](C)(C)C2)nc1)c1nnn[nH]1 (stereo partly drawn) [Example 292, (2S)-2-((1S)-2-(6-(1,1-dimethylpiperidin-1-ium-3-yl)pyridin-3-yl)-1-(1H-tetrazol-5-yl)ethyl)pentanoate] | – | – | – | – | – | – | 16 µM | 2.6 µM | 0.078 µM | 38 µM | 50 µM | 150 µM
CCC[C@H](C(=O)O)[C@H](Cc1ccc(N2CCN3CCCC3C2)cc1)c1nn[nH]n1 (stereo partly drawn) [Example 232, (2S)-2-[(1S)-2-[4-(hexahydropyrrolo[1,2-a]pyrazin-2(1H)-yl)phenyl]-1-(2H-tetrazol-5-yl)ethyl]pentanoic acid] | 0.42 µM | 0.18 µM | 0.09 µM | 12.5 µM | 50 µM | 12.5 µM | – | – | – | – | – | –
CCC[C@H](C(=O)O)[C@H](Cc1ccc(C)cc1)c1nn[nH]n1 [Example 52, (S)-2-((S)-1-(2H-tetrazol-5-yl)-2-(p-tolyl)ethyl)pentanoic acid] | 0.68 µM | 0.087 µM | 0.01 µM | 18.8 µM | 25 µM | 18.8 µM | – | – | – | – | – | –
CCC[C@H](C(=O)[O-])[C@H](Cc1cc[n+](C)cc1)c1nnn[nH]1 [Example 417, (S)-2-((S)-2-(1-methylpyridin-1-ium-4-yl)-1-(1H-tetrazol-5-yl)ethyl)pentanoate] | – | – | – | – | – | – | 11.1 µM | 1.28 µM | 0.0451 µM | 4.688 µM | 9.375 µM | 200 µM
